Source: publication PMC5641120, “Small-molecule inhibitors of PD-1/PD-L1 immune checkpoint alleviate the PD-L1-induced exhaustion of T-cells” (Oncotarget, 2017)
One block for each molecule: values may come before it.

Experiments:
[1] = molecular target: PD-1/PD-L1 immune checkpoint; experiment: PD1/PD-L1 checkpoint assay (ECs co-cultured with aAPCs, NFAT-luciferase reporter); assay type: cell-based, human; details: for EC50: Hill fit of luciferase activity, 6 h co-culture of ECs and aAPCs; for RLUmax (maximal relative luminescence): Hill fit, luminescence normalized to DMSO-treated controls; for effect on luciferase reporter expression (in words): ECs co-cultured with aAPCs
Text: A T lymphocyte-like cell line (Jurkat) modified to constitutively express PD-1 and carrying a luciferase reporter gene driven by TCR-inducible NFAT response element (Effector Cells, ECs) was used in T cell activation experiments. When antigen-presenting surrogate CHO cells, constitutively expressing the TCR agonist and PD-L1 (aAPCs) are presented to these ECs in co-culture, TCR signaling is repressed by PD-1 and the reporter remains silenced. Agents efficiently interfering with the PD-1/PD-L1 interaction activate the expression of the reporter gene resulting in the increase in luminescence intensity.
To verify the potency of BMS compounds in the inhibition of the PD-1/PD-L1 interactions, a cell-based model of the PD-1/PD-L1 immune checkpoint blockade was used. In the assay, two model cell lines are utilized: the artificial Antigen-Presenting Cells (PD-L1^+ aAPC/CHO-K1 cells, called aAPCs) overexpressing TCR ligand and PD-L1, and T cell surrogate, a modified Jurkat T cell line overexpressing PD-1 and carrying a luciferase reporter under the control of NFAT promoter (PD-1 Effector Cells, called ECs) [30]. […] Additionally, the cells were propagated in a constant presence of Hygromycin B (50 μg/ml) and G418 (250 μg/ml) to provide a stable expression of the introduced genetic constructs. The two latter antibiotics were omitted in the experiments. Overexpression of PD-1 on ECs and PD-L1 on aAPCs was verified by flow cytometry (not shown) and the presence of the luciferase-expressing gene was verified by monitoring luciferase activity following anti-CD3 antibody stimulation. Antibiotic selection, flow cytometry and reporter expression served as cell line authentication method. The cells were periodically tested and found negative for Mycoplasma contamination using PCR-based method [31].
The aAPCs were seeded in white 96-well plates at the density of 10 000 per well in the culture medium 24 h prior to the assay. […] By this, the concentration of DMSO was kept constant in all samples. 95 μl of the medium was removed from the wells and the cells were overlaid with 40 μl of the compound dilutions. […] Following 6 h incubation at 37°C, the plates were equilibrated at room temperature for 10 min and 80 μl of the Bio-Glo reagent (Promega) was added to each well. After incubation for 10 min, luminescence was quantified using FlexStation 3 (Molecular Devices). Half maximal effective concentrations (EC50) and maximal luminescence values (RLUmax) were determined by fitting the Hill equation to the experimental data.

[2] = molecular target: T1, sPD-L1 interaction with PD-1 receptor exposed at the cell surface (Homo sapiens, UniProt Q9NZQ7); experiment: Flow cytometry binding of fluorescently labeled sPD-L1 (PD-L1-Atto) to PD-1 expressing cells; assay type: cell-based; details: PD-L1-Atto 1.5 μM pre-incubated with 1 μM BMS compound or 125 μg/ml antibody
T1 construct: made in house; PD-1 stably overexpressed on Jurkat PD-1 Effector Cells from Promega
T1 sequence (Q9NZQ7 18-134): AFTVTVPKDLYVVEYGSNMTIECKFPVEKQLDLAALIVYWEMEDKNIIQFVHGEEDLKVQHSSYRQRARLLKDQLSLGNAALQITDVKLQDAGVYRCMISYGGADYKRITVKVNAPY
Protocol: To test if the observed effect of BMS compounds was directly associated with the decreased sPD-L1 recruitment to the cell surface of the PD-1-expressing cells, a His-tagged sPD-L1 was labeled with the Ni-NTA-conjugated fluorescent dye and flow cytometry analysis was performed. When ECs were contacted with labeled sPD-L1, a clear staining was observed (Figure 3B).
Binding of sPD-L1 (aa 18–134) to ECs was evaluated by flow cytometry. The His-tagged PD-L1 protein or its mutants were stained with NTA-Atto 647 N fluorescent dye (Sigma Aldrich) for 2 h at 22°C, at 8:1 molar ratio (protein:dye). PD-L1-Atto was formulated in 150 μl PBS with the tested compounds or antibodies. The samples were incubated for 30 min at 4°C in the dark. Meanwhile, ECs were centrifuged, washed with PBS and suspended in fresh PBS at concentration of 1 × 10^6 cells per ml. 50 μl of ECs was added to each sample and incubated on ice for additional 60 min. The final concentrations of the components were: 25 μg/ml of PD-L1 (1.5 μM), 125 μg/ml the anti-PD-L1 antibodies and control antibodies and 1 μM of the BMS compounds. The samples were analyzed using the BD FACS Verse flow cytometer and BD FACSuite v1.0.6 software.

human PD-L1 [3] = molecular target: T2, human PD-L1 (Homo sapiens, UniProt Q9NZQ7); experiment: 1H-15N HMQC NMR titration of PD-L1; assay type: binding; details: 15N labeled PD-L1, line broadening upon compound addition
T2 construct: human PD-L1 (residues 18–134, C-terminal His-tag); His-tag (C); made in house
T2 sequence (Q9NZQ7 18-134): as above
Protocol: Based on the two recent Bristol-Myers Squibb patents, the selection of the BMS compounds was done to obtain high diversity of the chemical structures along all modifications of distal, flexible moieties exposed to the solvent (Figure 1A). The compounds were synthesized as described previously with modifications. All compounds were tested for the interaction with PD-L1 using the ^1H-^15N HMQC NMR titration experiment with positive results, as reported elsewhere and in this manuscript (see below). In order to verify the blockade of the PD-1/PD-L1 interaction by the compounds an NMR-based AIDA was performed. Upon the PD-L1 binding the broadening of ^1H-^15N resonance signals of the ^15N labeled PD-1 is observed due to an increased transverse relaxation rate of the higher molecular weight entities. […] All the compounds efficiently disrupted the complex formed by human PD-1 and PD-L1 proteins, as visualized by the restoration of narrow ^1H-^15N signals of PD-1 ([26] and (Figure 1B)).
For further compound development it is of high importance to define the minimal fragments essential for the binding to the target protein. For this, BMS-1166 and its fragments were tested for interaction with PD-L1 using NMR method. From the six decomposition fragments tested, four retained PD-L1 binding potential (Figure 5).
Uniform ^15N labelling was obtained by expressing proteins in the M9 minimal medium containing ^15NH4Cl as the sole nitrogen source. For NMR measurements the buffer was exchanged by gel filtration to PBS pH 7.4 (PD-L1) or 25 mM sodium phosphate containing 100 mM NaCl pH 6.4 (PD-1). 10% (v/v) of D2O was added to the samples to provide the lock signal. All spectra were recorded at 300K using a Bruker Avance III 600 MHz spectrometer. The interaction of the compounds with PD-L1 was evaluated by monitoring the perturbations in chemical shifts of NMR resonances in the ^1H-^15N 2D HMQC upon titration with the compound. The ability of tested compounds to dissociate PD-L1/PD-1 was evaluated using the Antagonist Induced Dissociation Assay (AIDA). In brief, ^15N-labeled PD-1 (0.2 mM) was slightly overtitrated with the unlabeled PD-L1. The compounds were aliquoted into the resulting mixture. During the experiment the ^1H-^15N signals were monitored by the HMQC.

[4] = test system: PD-L1 aAPC/CHO-K1 cells (aAPCs); experiment: Toxicity towards aAPCs; assay type: cell-based; details: modified CHO-K1 cells (aAPCs), 48 h treatment
PD-1/sPD-L1 = PD-1/sPD-L1 effector assay (anti-CD3 activated ECs, luciferase); assay type: cell-based, human; details: anti-CD3, sPD-L1 0.6 μM, BMS compounds 0.12-3 μM; highest concentrations = 2- and 5-fold molar excess over sPD-L1; 24 h
Protocol: To evaluate the potential of BMS compounds in abrogating the inhibitory effect of sPD-L1 on the activation of T cells, sPD-L1 was pre-incubated with tested compounds and presented to ECs together with the anti-CD3-activating antibody.
For the evaluation of the BMS impact on T cell inhibition by soluble PD-L1, the ECs were stimulated with the anti-CD3 antibody in the presence of the recombinant human sPD-L1. For this, the 96-well white flat bottom plates were coated overnight at 4°C with 5 μg/ml of the anti-CD3 antibody or the isotype control solution in PBS. […] Then, 15 μl of the solution was added to each well of the antibody-coated plate. ECs were centrifuged and diluted to 50 000 per ml, and 60 μl of the cell solution was added to each well. The final concentration of sPD-L1 was 10 μg/ml (0.6 μM). The final concentrations of the BMS compounds were: 0.12, 0.3, 1.2 and 3 μM, giving the following BMS:sPD-L1 molar ratios: 1:5, 1:2, 2:1 and 5:1. The cells were cultured for 24 h and the luciferase activity assay was performed using the Bio-Glo Luciferase Assay System (Promega) according to the manufacturer's instructions.

sPD-L1 [5] = molecular target: T3, sPD-L1 (Homo sapiens, UniProt Q9NZQ7); experiment: BS3 cross-linking experiment (SDS-PAGE); details: hPD-L1 10 μM, compound 1:1 molar ratio
T3 construct: human PD-L1 (residues 18–134, C-terminal His-tag); His-tag (C); made in house
T3 sequence (Q9NZQ7 18-134): as above
Protocol: (§1) The formation of solution-stable PD-L1 dimers in the presence of BMS compounds was characterized previously for BMS-202 [26]. The crystal structures of BMS-1001 and −1166 bound to PD-L1 indicated similar properties of the compounds, but this required verification by in-solution assays. […] This was verified by a crosslinking experiment. sPD-L1 preincubated in the presence of a cross-linking agent (bis(sulfosuccinimidyl)suberate, BS3) migrated in SDS-PAGE as a single band corresponding to […] protein.
hPD-L1 was concentrated to 10 μM in PBS pH 7.4 and mixed with BMS-1001 or BMS-1166 in the 1:1 molar ratio, followed by the addition of the BS3 cross-linking reagent at 0.25, 0.5 or 1mM final concentration (Thermo Scientific). After 30-min incubation at room temperature, the reaction was quenched by the addition of Tris pH 7.5 to the final concentration of 25 mM. Control sample contained hPD-L1 and 1 mM BS3 reagent. The samples were analyzed by SDS-PAGE.

sPD-L1 [6] = molecular target: T3, sPD-L1; experiment: Complex analysis by gel filtration (size exclusion chromatography); details: inhibitor:protein 3:1 molar ratio
Protocol: as §1
Superdex S75 10/30 HR column was equilibrated with 10 mM Tris pH 8.0 containing 20 mM NaCl. The column was calibrated with globular protein standards. The retention time of hPD-L1 (4 mg/ml) was determined. hPD-L1/inhibitor complexes were formed at 3:1 (inhibitor:protein) molar ratio, incubated for 15 min at room temperature and clarified by centrifugation for 10 min at 15 000 × g. The samples were analyzed in the same manner as the apo-hPD-L1.

[7] = Cytotoxicity (metabolic activity assay) against PD-1 Effector Cells; details: human, PD-1 Effector Cells (modified Jurkat T cells, ECs)
Protocol: (§2) To define the maximum admissible concentrations of BMS compounds for the use in the cell-based assays, the toxicity of the compounds was evaluated with the use of metabolic activity assay. For this, modified Jurkat T cells (ECs) used in all further assays were exposed to the increasing concentration of the tested compounds for 48 h.
(§3) Figure 2 Cytotoxicity and activity of BMS compounds in PD-1/PD-L1 checkpoint assay (A) Cytotoxicity of BMS compounds against the PD-1 Effector Cells was tested using metabolic activity assay following the 48 h treatment of the cells with the indicated compounds. […] The graphs present relative luminescence normalized to the DMSO-treated controls and are representative of the three independent experiments. (D) The result of the fitting of Hill model to experimental data presented on panels B and C. EC50 values represent half maximal effective concentrations, and RLUmax values represent maximal relative luminescence values, and illustrate the potency of the listed molecules in restoring the activity of ECs in the assay.
(§4) 5 000 ECs were seeded on transparent 96-well plates and cultured for 48 h in the presence of increasing concentrations of the BMS compounds or DMSO as a control (the concentration of DMSO was kept constant in all samples). Following the treatment, a metabolic activity test was performed with the use of Biolog Redox Dye Mix MB (BioLog), according to the manufacturer's instructions.

[8] = test system: PD-1 Effector Cells (modified Jurkat T cells, ECs); experiment: as above; details: ECs, 48 h treatment, metabolic activity assay
Protocol: as §2, §3, §4

human PD-L1 [9] = molecular target: T2, human PD-L1; set-up: method as in PMID 27083005; details: shown previously; cited from earlier work
human PD-1/PD-L1 complex = molecular target: T4, human PD-1/PD-L1 complex (Homo sapiens, UniProt Q9NZQ7); set-up: method as in PMID 27083005; details: shown previously; cited from earlier work
T4 construct: human PD-L1 (residues 18–134, C-terminal His-tag); His-tag (C); made in house
T4 sequence (Q9NZQ7 18-134, one chain of several): as the sequence (Q9NZQ7 18-134) above

EC50 [1]: 0.333 ± 0.068 nM
RLUmax (maximal relative luminescence) [1]: 2.94 ± 0.08
staining of ECs by labeled sPD-L1 (in words) [2]: significantly decreased the staining
Molecule: durvalumab: anti-PD-L1 antibody

interaction with PD-L1 (1H-15N HMQC NMR) (human PD-L1 [3]): active
Molecule: Cc1c(CO)cccc1-c1ccc2c(c1)OCCO2 [compound 4]

interaction with PD-L1 (1H-15N HMQC NMR) (human PD-L1 [3]): not-active
Molecule: Cc1cccc(CBr)c1C [compound 6]

EC50 ([1]; Homo sapiens): 253 ± 120 nM
restoration of sPD-L1-suppressed activation of ECs (in words) (PD-1/sPD-L1): completely restored cell activation
interaction with PD-L1 (1H-15N HMQC NMR) (human PD-L1 [3]): induced linewidth broadening
sPD-L1 retention time in size exclusion chromatography (sPD-L1 [6]): significantly shortened
Molecule: Cc1cc(CN[C@H](CO)C(=O)O)c(OCc2cccc(C#N)c2)cc1OCc1cccc(-c2ccc3c(c2)OCCO3)c1C [BMS-1001]
toxicity (in words) [4]: Low toxicity
effect on luciferase reporter expression (in words) [1]: dose-dependently induced the activity of luciferase
RLUmax (maximal relative luminescence) [1]: 1.88 ± 0.16
staining of ECs by labeled sPD-L1 (in words) [2]: significantly decreased the intensity of staining
sPD-L1 dimer formation by cross-linking (SDS-PAGE) (sPD-L1 [5]): two bands in SDS-PAGE analysis, corresponding to sPD-L1 monomer and a dimer
EC50 at 48 h [7]: 33400 nM

Molecule: Cc1c(COc2cc(OCc3cccc(C#N)c3)c(CN3C[C@H](O)C[C@@H]3C(=O)O)cc2Cl)cccc1-c1ccc2c(c1)OCCO2 [BMS-1166]
toxicity (in words) [4]: Low toxicity
effect on luciferase reporter expression (in words) [1]: dose-dependently induced the activity of luciferase
RLUmax (maximal relative luminescence) [1]: 1.72 ± 0.03
EC50 ([1]; Homo sapiens): 276 ± 29 nM
staining of ECs by labeled sPD-L1 (in words) [2]: significantly decreased the intensity of staining
interaction with PD-L1 (1H-15N HMQC NMR) (human PD-L1 [3]): induced linewidth broadening
interaction with PD-L1 (1H-15N HMQC NMR) (human PD-L1 [3]; listed as 1): active

effect on luciferase reporter expression (in words) [1]: did not affect the reporter expression
Molecule: Cc1c(COc2cc(F)c(CNC[C@@H](O)CC(=O)O)cc2F)cccc1-c1ccc2c(c1)OCCO2 [BMS-200]
toxicity (in words) [8]: moderate toxicity

Molecule: Cc1c(COc2ccc(CN3CCCCC3C(=O)O)cc2Br)cccc1-c1ccccc1 (stereo not drawn) [BMS-8]
binding to PD-L1 (human PD-L1 [9]): bind to PD-L1
dissociation of human PD-1/PD-L1 complex in vitro (human PD-1/PD-L1 complex): efficiently dissociate the human PD-1/PD-L1 complex
toxicity (in words) [8]: moderate toxicity

Molecule: c1ccc2c(c1)OCCO2 [compound 5]
interaction with PD-L1 (1H-15N HMQC NMR) (human PD-L1 [3]): not-active

interaction with PD-L1 (1H-15N HMQC NMR) (human PD-L1 [3]): active
Molecule: Cc1c(COc2cc(OCc3cccc(C#N)c3)c(C=O)cc2Cl)cccc1-c1ccc2c(c1)OCCO2 [compound 2]

interaction with PD-L1 (1H-15N HMQC NMR) (human PD-L1 [3]): active
Molecule: Cc1c(COc2cc(O)c(C=O)cc2Cl)cccc1-c1ccc2c(c1)OCCO2 [compound 3]

Molecule: COc1cc(OCc2cccc(-c3ccccc3)c2C)cc(OC)c1CN[C@@H](CO)C(C)C [BMS-242]
restoration of sPD-L1-suppressed activation of ECs (in words) (PD-1/sPD-L1): unspecific decrease in the readout level
EC50 at 48 h [7]: 3000 to 6000 nM

EC50 [1]: 0.42 ± 0.049 nM
RLUmax (maximal relative luminescence) [1]: 2.72 ± 0.02
staining of ECs by labeled sPD-L1 (in words) [2]: significantly decreased the staining
Molecule: atezolizumab: anti-PD-L1 antibody

restoration of sPD-L1-suppressed activation of ECs (in words) (PD-1/sPD-L1): abrogated the effect of sPD-L1
Molecule: nivolumab: anti-PD-1 antibody
